Columns and labels:
[1] = molecular target: T1, Full length DGKα (D21-10BG, SignalChem) (Homo sapiens, UniProt P23743); assay: Biochemical DGK IC50 assay (ADP-Glo, lipid micelle substrate), DGKα; settings: 1 hour preincubation, 1 hour reaction, room temperature
T1 construct: Full length DGKα (D21-10BG, SignalChem); purchased SignalChem D21-10BG
Procedure, shortened: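 Full-length human DGKα with DAG/PS lipid micelle substrate (in octyl glucoside buffer), reacted 1 h at room temperature in 50 mM HEPES, 10 mM MgCl2, 0.01 mM CaCl2, 0.1 mM Na3VO4, 0.01% BSA, 0.005% Tween-20. ADP formed read by ADP-Glo luminescence; IC50 from inhibition across increasing compound concentrations.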

[2] = molecular target: T2, Full length DGKζ (in-house protein M1-V929) (Homo sapiens, UniProt Q13574); assay: Biochemical DGK IC50 assay (ADP-Glo, lipid micelle substrate), DGKζ; settings: 1 hour preincubation, 1 hour reaction, room temperature
T2 construct: His (N); TEV site (N); made in house; host or cells: Sf9 insect cells (Bac-to-Bac baculovirus)
Procedure, shortened: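 Full-length human DGKζ (M1-V929, His-TEV tagged, Sf9 baculovirus-expressed) with DAG/PS lipid micelle substrate in octyl glucoside, at room temperature in 50 mM HEPES, 10 mM MgCl2, 0.01 mM CaCl2 buffer.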

T1 sequence (P23743 whole entry): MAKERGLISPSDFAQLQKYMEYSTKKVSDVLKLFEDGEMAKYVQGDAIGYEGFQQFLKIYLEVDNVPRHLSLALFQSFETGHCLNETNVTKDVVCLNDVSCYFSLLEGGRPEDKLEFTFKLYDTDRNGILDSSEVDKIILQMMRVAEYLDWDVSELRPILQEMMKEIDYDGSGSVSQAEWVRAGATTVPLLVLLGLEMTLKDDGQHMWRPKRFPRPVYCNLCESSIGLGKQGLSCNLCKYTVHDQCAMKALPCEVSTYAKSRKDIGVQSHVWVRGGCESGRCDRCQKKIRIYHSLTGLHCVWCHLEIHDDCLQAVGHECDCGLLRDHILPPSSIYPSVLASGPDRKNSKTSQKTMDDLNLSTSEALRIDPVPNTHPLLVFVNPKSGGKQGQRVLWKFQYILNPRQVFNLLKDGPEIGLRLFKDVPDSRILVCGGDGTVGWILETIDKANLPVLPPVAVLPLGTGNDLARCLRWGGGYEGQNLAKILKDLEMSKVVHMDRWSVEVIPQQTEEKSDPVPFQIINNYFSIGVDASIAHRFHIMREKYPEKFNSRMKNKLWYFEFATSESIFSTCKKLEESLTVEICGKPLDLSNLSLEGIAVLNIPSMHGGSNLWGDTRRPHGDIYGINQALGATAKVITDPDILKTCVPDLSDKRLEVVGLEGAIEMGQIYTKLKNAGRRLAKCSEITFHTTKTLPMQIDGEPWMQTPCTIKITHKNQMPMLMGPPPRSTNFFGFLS
T2 sequence (Q13574 1-929 isoform Q13574-4): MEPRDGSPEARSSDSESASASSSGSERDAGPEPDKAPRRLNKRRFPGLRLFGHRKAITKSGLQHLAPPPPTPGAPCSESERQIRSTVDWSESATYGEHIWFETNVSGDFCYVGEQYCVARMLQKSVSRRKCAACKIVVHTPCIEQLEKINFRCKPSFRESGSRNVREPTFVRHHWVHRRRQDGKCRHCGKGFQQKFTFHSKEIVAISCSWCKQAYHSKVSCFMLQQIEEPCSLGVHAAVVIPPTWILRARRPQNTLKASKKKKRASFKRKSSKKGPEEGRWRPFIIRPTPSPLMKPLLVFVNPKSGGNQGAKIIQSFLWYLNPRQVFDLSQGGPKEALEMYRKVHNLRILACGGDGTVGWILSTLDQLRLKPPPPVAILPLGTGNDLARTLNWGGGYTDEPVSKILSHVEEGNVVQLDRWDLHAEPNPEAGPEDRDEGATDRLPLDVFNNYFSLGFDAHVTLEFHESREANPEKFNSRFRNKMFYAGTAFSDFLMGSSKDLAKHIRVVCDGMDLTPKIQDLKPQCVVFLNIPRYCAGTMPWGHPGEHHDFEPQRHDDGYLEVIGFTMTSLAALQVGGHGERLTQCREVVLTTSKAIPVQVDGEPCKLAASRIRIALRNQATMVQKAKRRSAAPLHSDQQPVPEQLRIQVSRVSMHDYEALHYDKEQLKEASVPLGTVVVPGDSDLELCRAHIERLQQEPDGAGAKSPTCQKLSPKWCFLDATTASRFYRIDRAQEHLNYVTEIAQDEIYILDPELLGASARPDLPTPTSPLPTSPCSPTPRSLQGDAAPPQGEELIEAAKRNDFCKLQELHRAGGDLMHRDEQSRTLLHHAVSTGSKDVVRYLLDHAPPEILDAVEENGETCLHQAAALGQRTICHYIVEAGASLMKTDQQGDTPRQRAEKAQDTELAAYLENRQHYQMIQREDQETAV

Row | SMILES | IC50 [1] [µM] | IC50 [2] [µM]
1 | CC[C@@H]1CN(c2nc(=O)n(C)c3c2nc(CC#N)n3CC)[C@@H](C)CN1C(C)c1ccc2c(n1)OC(C)(C)CO2 (single isomer, unassigned) [Compound A158b] | > 150 | 0.407
2 | CCn1c(CC#N)nc2c(N3C[C@@H](C)N(C(C)c4ccnc(NC(C)C)c4)C[C@@H]3C)nc(=O)n(C)c21 (stereo partly drawn) [Compound A122, 2-(9-ethyl-6-((2S,5R)-4-(1-(2-(isopropylamino)pyridin-4-yl)ethyl)-2,5-dimethylpiperazin-1-yl)-3-methyl-2-oxo-3,9-dihydro-2H-purin-8-yl)acetonitrile] | > 150 | 0.834
3 | CCn1c(CC#N)nc2c(N3C[C@@H](C)N(C(C)c4ccnc5c4OCCC5(F)F)C[C@@H]3C)nc(=O)n(C)c21 (single isomer, unassigned) [Compound A103a] | > 150 | 0.524
4 | CCn1c(CC#N)nc2c(N3C[C@@H](C)N(C(C)c4cccc(OC(C)C)n4)C[C@@H]3C)nc(=O)n(C)c21 (single isomer, unassigned) [Compound A117a] | > 150 | 3.3
5 | CCn1c(CC#N)nc2c(N3C[C@@H](C)N(C(C)c4ccc5c(c4)OC(F)(F)CO5)C[C@@H]3C)nc(=O)n(C)c21 (single isomer, unassigned) [Compound A80b] | > 150 | 0.664
6 | CCn1c(CC#N)nc2c(N3C[C@@H](C)N(C(C)c4ccc5c(n4)OC(C)(C)CO5)C[C@@H]3C)c(F)c(=O)n(C)c21 (stereo partly drawn) [Compound A21, 2-(7-((2S,5R)-4-(1-(3,3-dimethyl-2,3-dihydro-[1,4]dioxino[2,3-b]pyridin-6-yl)ethyl)-2,5-dimethylpiperazin-1-yl)-3-ethyl-6-fluoro-4-methyl-5-oxo-4,5-dihydro-3H-imidazo[4,5-b]pyridin-2-yl)acetonitrile] | > 150 | 0.061
7 | COC[C@H]1CN(C(C)c2ccc3ncc(C)nc3c2)[C@H](C)CN1c1nc(=O)n(C)c2c1nc(CC#N)n2C (single isomer, unassigned) [Compound A13a] | > 150 | 5.06
8 | C=C(C)c1cc(C(C)N2C[C@H](C)N(c3nc(=O)n(C)c4c3nc(CC#N)n4CC)C[C@H]2C)ccc1F (stereo partly drawn) [Compound A135, 2-(9-ethyl-6-((2S,5R)-4-(1-(4-fluoro-3-(prop-1-en-2-yl)phenyl)ethyl)-2,5-dimethylpiperazin-1-yl)-3-methyl-2-oxo-3,9-dihydro-2H-purin-8-yl)acetonitrile] | > 150 | 0.014
9 | CCn1c(CC#N)nc2c(N3C[C@@H](C)N(C(C)c4ccc5c(n4)OC(C)(C)C5)C[C@@H]3C)nc(=O)n(C)c21 (stereo partly drawn) [Compound A180, 2-(6-((2S,5R)-4-(1-(2,2-dimethyl-2,3-dihydrofuro[2,3-b]pyridin-6-yl)ethyl)-2,5-dimethylpiperazin-1-yl)-9-ethyl-3-methyl-2-oxo-3,9-dihydro-2H-purin-8-yl)acetonitrile] | > 150 | 4.44
10 | COC[C@H]1CN(C(C)c2ccc(F)cc2C(F)(F)F)[C@H](C)CN1c1nc(=O)n(C)c2c1nc(CC#N)n2C (single isomer, unassigned) [Compound A10a] | > 10 | 0.405
11 | CC(c1ccc2c(c1)OCCO2)N1C[C@H](C)N(c2nc(=O)n(C)c3c2nc(CC#N)n3C)C[C@H]1C (stereo partly drawn) [Compound A58, 2-(6-((2S,5R)-4-(1-(2,3-dihydrobenzo[b][1,4]dioxin-6-yl)ethyl)-2,5-dimethylpiperazin-1-yl)-3,9-dimethyl-2-oxo-3,9-dihydro-2H-purin-8-yl)acetonitrile] | > 10 | 0.04
12 | CCn1c(CC#N)nc2c(N3C[C@@H](C)N(C(C)c4ccc5c(c4)OC(C)(C)CO5)C[C@@H]3C)nc(=O)n(CC)c21 (stereo partly drawn) [Compound A62, 2-(6-((2S,5R)-4-(1-(3,3-dimethyl-2,3-dihydrobenzo[b][1,4]dioxin-6-yl)ethyl)-2,5-dimethylpiperazin-1-yl)-3,9-diethyl-2-oxo-3,9-dihydro-2H-purin-8-yl)acetonitrile] | > 150 | 0.279
13 | CCn1c(CC#N)nc2c(N3C[C@@H](C)N(C(C)c4ccnc(C(=O)NC)c4)C[C@@H]3C)nc(=O)n(C)c21 (stereo partly drawn) [Compound A130, 4-(1-((2R,5S)-4-(8-(cyanomethyl)-9-ethyl-3-methyl-2-oxo-3,9-dihydro-2H-purin-6-yl)-2,5-dimethylpiperazin-1-yl)ethyl)-N-methylpicolinamide] | > 150 | 3.9

The next lines start with the values.

Row | IC50 [1] [µM] | IC50 [2] [µM] | SMILES
14 | 7.19 | 0.007 | CCn1c(CC#N)nc2c(N3C[C@@H](C)N(C(C)c4c(F)cc5c(c4F)OC(C)(C)O5)C[C@@H]3C)nc(=O)n(C)c21 (single isomer, unassigned) [Compound A176b]
15 | 6.09 | 0.147 | CC(c1cc2c(cc1F)OCC(C)(C)O2)N1C[C@H](C)N(c2nc(=O)n(C)c3c2nc(CC#N)n3C)C[C@H]1C (single isomer, unassigned) [Compound A69b]
16 | 21.4 | 0.004 | CCn1c(CC#N)nc2c(N3C[C@@H](C)N(C(C)c4ccc5c(c4F)OC(C)(C)O5)C[C@@H]3C)nc(=O)n(C)c21 (single isomer, unassigned) [Compound A175b]
17 | 27.5 | 0.0028 | CC(c1ccc2c(c1)OC(C)(C)CO2)N1C[C@H](C)N(c2c(F)c(=O)n(C)c3c2nc(CC#N)n3C)C[C@H]1C (single isomer, unassigned) [Compound A19a]
18 | 51 | 0.012 | CCn1c(CC#N)nc2c(N3C[C@@H](C)N(C(C)c4cc(F)c5c(c4)OC(C)(C)O5)C[C@@H]3C)nc(=O)n(C)c21 (single isomer, unassigned) [Compound A173a]
19 | 120 | 2.19 | CCn1c(CC#N)nc2c(N3C[C@@H](C)N(C(C)c4ccc(CN5CCOCC5)cc4)C[C@@H]3C)nc(=O)n(C)c21 (stereo partly drawn) [Compound A139, 2-(6-((2S,5R)-2,5-dimethyl-4-(1-(4-(morpholinomethyl)phenyl)ethyl)piperazin-1-yl)-9-ethyl-3-methyl-2-oxo-3,9-dihydro-2H-purin-8-yl)acetonitrile]
20 | 22.3 | 0.265 | CC[C@H]1CN(C(C)c2ccc3ncc(C)nc3c2)[C@H](CC)CN1c1nc(=O)n(C)c2c1nc(CC#N)n2C (single isomer, unassigned) [Compound A51b]
21 | 3.95 | 0.007 | CC(c1ccc2nccnc2c1)N1C[C@H](C)N(c2cc(=O)n(C)c3sc(CC#N)nc23)C[C@H]1C (single isomer, unassigned) [Compound A194a]
22 | 104 | 0.017 | [2H]C([2H])([2H])n1c(CC#N)nc2c(N3C[C@@H](C)N(C(C)c4ccc(F)cc4C(F)(F)F)C[C@@H]3C)nc(=O)n(C([2H])([2H])[2H])c21 (stereo partly drawn) [Compound A36, 2-(6-((2S,5R)-4-(1-(4-fluoro-2-(trifluoromethyl)phenyl)ethyl)-2,5-dimethylpiperazin-1-yl)-3,9-bis(methyl-d3)-2-oxo-3,9-dihydro-2H-purin-8-yl)acetonitrile]
23 | 20.3 | 0.002 | CC(c1cc(F)c2c(c1)OC(C)(C)CO2)N1C[C@H](C)N(c2nc(=O)n(C)c3c2nc(CC#N)n3C)C[C@H]1C (single isomer, unassigned) [Compound A68a]
24 | 14.9 | 0.009 | CC(c1ccc2nccnc2c1)N1C[C@H](C)N(c2cc(=O)n(C)c3c2nc(CC#N)n3C)C[C@H]1C (single isomer, unassigned) [Compound A1a]
25 | 43.8 | 0.007 | CC(c1cc(F)c2c(c1)OC(C)(C)CO2)N1C[C@H](C)N(c2nc(=O)n(C)c3c2nc(CC#N)n3C)C[C@H]1C (mixture of isomers) [Compound A68, 2-(6-((2S,5R)-4-(1-(8-fluoro-3,3-dimethyl-2,3-dihydrobenzo[b][1,4]dioxin-6-yl)ethyl)-2,5-dimethylpiperazin-1-yl)-3,9-dimethyl-2-oxo-3,9-dihydro-2H-purin-8-yl)acetonitrile]
26 | 102 | 0.007 | CCn1c(CC#N)nc2c(N3C[C@@H](C)N(C(C)c4ccc5c(c4)C(F)(F)CCO5)C[C@@H]3C)nc(=O)n(C)c21 (stereo partly drawn) [Compound A78, 2-(6-((2S,5R)-4-(1-(4,4-difluorochroman-6-yl)ethyl)-2,5-dimethylpiperazin-1-yl)-9-ethyl-3-methyl-2-oxo-3,9-dihydro-2H-purin-8-yl)acetonitrile]
27 | 60.3 | 0.024 | CCn1c(=O)nc(N2C[C@@H](C)N(C(C)c3ccc4ncc(C)nc4c3)C[C@@H]2C)c2nc(CC#N)n(C)c21 (single isomer, unassigned) [Compound A53a]

From patent publication US20260125378A2, “Heterocyclic Compounds” (BeOne Medicines I GmbH, priority 2023, published 2026)
